One block for each molecule: values may come before it.
How the values were obtained:
Staphylococcus aureus = experiment: preservation efficacy test (PET), European Pharmacopoeia 5.1.3; type: cell-based
Escherichia coli = experiment: as above; type: cell-based; conditions: for number of microorganisms, 7 days / number of microorganisms, 14 days / number of microorganisms, 28 days / number of microorganisms, 2 days: Escherichia coli (EC)
Candida albicans = experiment: as above; type: cell-based
[1] = maximum water solubility of alkanediols, visual observation; type: physicochemical; conditions: ambient temperature after 24 h storage at 5° C.
Description: The water solubility of a substance is the saturation mass concentration of the substance in water at a given temperature. The determination of the solubility in water relates to essentially pure substances which are stable in water and not volatile. The determination of the water solubility of the alkanediols is further described in the following Example 2.
For the determination of the maximum water solubility of an alkanediol, water and different concentrations of the respective alkanediol were blended by stirring. […] The determination of whether the alkanediol has dissolved in water is based entirely on visual observation.

yeast = experiment: preservation efficacy test (PET), overview of the effect against yeast; type: cell-based, Candida albicans; conditions: PET in a shampoo formulation, result in words on Table 8
Pseudomonas aeruginosa = experiment: preservation efficacy test (PET), European Pharmacopoeia 5.1.3; type: cell-based; conditions: for PA germ count, 2 days / PA germ count, 7 days / PA germ count, 14 days / PA germ count, 28 days: substance at given % in test formulation
Aspergillus brasiliensis = experiment: as above; type: cell-based; conditions: for number of microorganisms, 14 days / number of microorganisms, 28 days: Aspergillus brasiliensis (AB)
[2] = 7 days after inoculation, o/w emulsion (Table 53)
[3] = 7 days after inoculation, substance at given % in test formulation
[4] = 14 days after inoculation, o/w emulsion (Table 53)
[5] = 14 days after inoculation, substance at given % in test formulation
[6] = 28 days after inoculation, o/w emulsion (Table 53)
[7] = 28 days after inoculation, substance at given % in test formulation
[8] = PET in shampoo, Staphylococcus aureus (SA), 14 days after inoculation
[9] = PET in shampoo, Staphylococcus aureus (SA), 28 days after inoculation
[10] = PET, Staphylococcus aureus (SA), 28 days after inoculation
[11] = 2 days after inoculation, o/w emulsion (Table 53)
[12] = PET in shampoo, Candida albicans (CA), 28 days after inoculation
[13] = PET, Staphylococcus aureus (SA), 7 days after inoculation
[14] = PET, Staphylococcus aureus (SA), 14 days after inoculation
[15] = PET, Candida albicans (CA), 28 days after inoculation

- Maximum solubility in water [1]: 0.5 % by weight
Compound: CCCCCCC(O)CO (stereo not drawn) [Hydrolite ® 8]

- Maximum solubility in water [1]: 50 % by weight
Compound: CCCCC(O)CO (stereo not drawn) [Hydrolite ® 6]

- Maximum solubility in water [1]: 50 % by weight
Compound: CCCC(O)CO (stereo not drawn) [Hydrolite ® 5 green]

- Maximum solubility in water [1]: 1.5 % by weight
Compound: CCCCCC(O)C(C)O (stereo not drawn) [2,3-octanediol]
- SA germ count, 14 days (Staphylococcus aureus; [5]): 1
- SA germ count, 28 days (Staphylococcus aureus; [7]): 1
- number of microorganisms, 7 days (Staphylococcus aureus; PET in shampoo, Staphylococcus aureus (SA), 7 days after inoculation): 1
- number of microorganisms, 14 days (Staphylococcus aureus; [8]): 1
- number of microorganisms, 28 days (Staphylococcus aureus; [9]): 1
- number of microorganisms, 7 days (Staphylococcus aureus; [13]): 84.000
- number of microorganisms, 14 days (Staphylococcus aureus; [14]): 1
- number of microorganisms, 28 days (Staphylococcus aureus; [10]): 1
- count at 2 days (Staphylococcus aureus; SA, 2 days after inoculation, use concentration in label): 520.000
- count at 7 days (Staphylococcus aureus; SA, 7 days after inoculation, use concentration in label): 9.300
- count at 14 days (Staphylococcus aureus; SA, 14 days after inoculation, use concentration in label): 1
- count at 28 days (Staphylococcus aureus; SA, 28 days after inoculation, use concentration in label): 1
- count at 2 days (Escherichia coli; EC, 2 days after inoculation, use concentration in label): 130.000
- count at 7 days (Escherichia coli; EC, 7 days after inoculation, use concentration in label): 19.000
- count at 14 days (Escherichia coli; EC, 14 days after inoculation, use concentration in label): 290
- count at 28 days (Escherichia coli; EC, 28 days after inoculation, use concentration in label): 18
- number of microorganisms, 28 days (Escherichia coli; PET in shampoo, 28 days after inoculation, listed as 0,4% 2,3 Octanediol): 600.000
- number of microorganisms, 2 days (Escherichia coli; PET, 2 days after inoculation): 48.000
- number of microorganisms, 7 days (Escherichia coli; PET, 7 days after inoculation): 290
- number of microorganisms, 14 days (Escherichia coli; PET, 14 days after inoculation): 1
- number of microorganisms, 28 days (Escherichia coli; PET, 28 days after inoculation): 1
- count at 2 days (Candida albicans; CA, 2 days after inoculation, use concentration in label): 660.000
- count at 7 days (Candida albicans; CA, 7 days after inoculation, use concentration in label): 210.000
- count at 14 days (Candida albicans; CA, 14 days after inoculation, use concentration in label): 120.000
- count at 28 days (Candida albicans; CA, 28 days after inoculation, use concentration in label): 11.000
- number of microorganisms, 28 days (Candida albicans; [12]): 1
- number of microorganisms, 28 days (Candida albicans; [15]): 390.000
- count at 2 days (Aspergillus brasiliensis; AB, 2 days after inoculation, use concentration in label): 940.000
- count at 7 days (Aspergillus brasiliensis; AB, 7 days after inoculation, use concentration in label): 660.000
- count at 14 days (Aspergillus brasiliensis; AB, 14 days after inoculation, use concentration in label): 820.000
- count at 28 days (Aspergillus brasiliensis; AB, 28 days after inoculation, use concentration in label): 560.000
- number of microorganisms, 14 days (Aspergillus brasiliensis; PET in shampoo, 14 days after inoculation, listed as 0,1% 2,3 Octanediol): 250.000
- antimicrobial efficacy against yeast (yeast): antimicrobial efficacy
- PA germ count, 2 days (Pseudomonas aeruginosa; 2 days after inoculation): 1
- PA germ count, 7 days (Pseudomonas aeruginosa; 7 days after inoculation): 1
- PA germ count, 14 days (Pseudomonas aeruginosa; 14 days after inoculation): 1
- PA germ count, 28 days (Pseudomonas aeruginosa; 28 days after inoculation): 1
- count at 2 days (Pseudomonas aeruginosa; PA, 2 days after inoculation, use concentration in label): 1
- count at 7 days (Pseudomonas aeruginosa; PA, 7 days after inoculation, use concentration in label): 1
- count at 14 days (Pseudomonas aeruginosa; PA, 14 days after inoculation, use concentration in label): 1
- count at 28 days (Pseudomonas aeruginosa; PA, 28 days after inoculation, use concentration in label): 1

The remaining lines, values behind:

Compound: CCCCC(O)C(C)O (stereo not drawn) [2,3-heptanediol]
- germ count SA, 7 days (Staphylococcus aureus; [2]): 790.000
- SA germ count, 7 days (Staphylococcus aureus; [3]): 790.000
- germ count SA, 14 days (Staphylococcus aureus; [4]): 55
- SA germ count, 14 days (Staphylococcus aureus; [5]): 55
- germ count SA, 28 days (Staphylococcus aureus; [6]): 1
- SA germ count, 28 days (Staphylococcus aureus; [7]): 1
- number of microorganisms, 14 days (Staphylococcus aureus; [8]): 1
- number of microorganisms, 28 days (Staphylococcus aureus; [9]): 1
- number of microorganisms, 28 days (Staphylococcus aureus; [10]): 1
- germ count EC, 2 days (Escherichia coli; [11]): 170.000
- EC germ count, 2 days (Escherichia coli; 2 days after inoculation, substance at given % in test formulation): 170.000
- germ count EC, 7 days (Escherichia coli; [2]): 1.600
- EC germ count, 7 days (Escherichia coli; [3]): 1.600
- germ count EC, 14 days (Escherichia coli; [4]): 82
- EC germ count, 14 days (Escherichia coli; [5]): 82
- germ count EC, 28 days (Escherichia coli; [6]): 1
- EC germ count, 28 days (Escherichia coli; [7]): 1
- number of microorganisms, 7 days (Escherichia coli; PET in shampoo, 7 days after inoculation, listed as 0,4% 2,3 Heptandiol): 100.000
- number of microorganisms, 14 days (Escherichia coli; PET in shampoo, 14 days after inoculation, listed as 0,4% 2,3 Heptandiol): 75.000
- number of microorganisms, 28 days (Escherichia coli; PET in shampoo, 28 days after inoculation, listed as 0,4% 2,3 Heptandiol): 380.000
- number of microorganisms, 28 days (Escherichia coli; PET, 28 days after inoculation): 1
- germ count CA, 28 days (Candida albicans; [6]): 370.000
- CA germ count, 28 days (Candida albicans; [7]): 370.000
- number of microorganisms, 28 days (Candida albicans; [12]): 1
- Maximum solubility in water [1]: 3.6 % by weight
- antimicrobial efficacy against yeast (yeast): antimicrobial efficacy
- germ count PA, 2 days (Pseudomonas aeruginosa; [11]): 1
- PA germ count, 2 days (Pseudomonas aeruginosa; 2 days after inoculation): 1
- germ count PA, 7 days (Pseudomonas aeruginosa; [2]): 1
- PA germ count, 7 days (Pseudomonas aeruginosa; 7 days after inoculation): 1
- germ count PA, 14 days (Pseudomonas aeruginosa; [4]): 1
- PA germ count, 14 days (Pseudomonas aeruginosa; 14 days after inoculation): 1
- germ count PA, 28 days (Pseudomonas aeruginosa; [6]): 1
- PA germ count, 28 days (Pseudomonas aeruginosa; 28 days after inoculation): 1

Compound: CCCCCCC(O)C(C)O (stereo not drawn) [2,3-nonanediol]
- number of microorganisms, 14 days (Staphylococcus aureus; [8]): 1
- number of microorganisms, 28 days (Staphylococcus aureus; [9]): 1
- number of microorganisms, 7 days (Staphylococcus aureus; [13]): 66.000
- number of microorganisms, 14 days (Staphylococcus aureus; [14]): 1
- number of microorganisms, 28 days (Staphylococcus aureus; [10]): 1
- number of microorganisms, 2 days (Escherichia coli; PET, 2 days after inoculation): 810.000
- number of microorganisms, 7 days (Escherichia coli; PET, 7 days after inoculation): 27.000
- number of microorganisms, 14 days (Escherichia coli; PET, 14 days after inoculation): 1.100
- number of microorganisms, 28 days (Escherichia coli; PET, 28 days after inoculation): 1
- number of microorganisms, 28 days (Candida albicans; [12]): 1
- number of microorganisms, 28 days (Candida albicans; [15]): 970.000
- number of microorganisms, 14 days (Aspergillus brasiliensis; PET in shampoo, 14 days after inoculation, listed as 0,1% 2,3 Nonanediol): 680.000
- number of microorganisms, 28 days (Aspergillus brasiliensis; PET in shampoo, 28 days after inoculation, listed as 0,1% 2,3 Nonanediol): 530.000
- number of microorganisms, 14 days (Aspergillus brasiliensis; PET, 14 days after inoculation): 890.000
- Maximum solubility in water [1]: 0.3 % by weight
- antimicrobial efficacy against yeast (yeast): antimicrobial efficacy

Compound: CCCCCCCC(O)CO (stereo not drawn) [1,2-Nonanediol]
- number of microorganisms, 2 days (Staphylococcus aureus; PET, Staphylococcus aureus (SA), 2 days after inoculation): 2.300
- number of microorganisms, 7 days (Staphylococcus aureus; [13]): 1
- number of microorganisms, 14 days (Staphylococcus aureus; [14]): 1
- number of microorganisms, 28 days (Staphylococcus aureus; [10]): 1
- number of microorganisms, 2 days (Escherichia coli; PET, 2 days after inoculation): 6.700
- number of microorganisms, 7 days (Escherichia coli; PET, 7 days after inoculation): 1
- number of microorganisms, 14 days (Escherichia coli; PET, 14 days after inoculation): 1
- number of microorganisms, 28 days (Escherichia coli; PET, 28 days after inoculation): 1
- number of microorganisms, 7 days (Candida albicans; PET, Candida albicans (CA), 7 days after inoculation): 120.000
- number of microorganisms, 14 days (Candida albicans; PET, Candida albicans (CA), 14 days after inoculation): 890
- number of microorganisms, 28 days (Candida albicans; [15]): 1
- number of microorganisms, 28 days (Aspergillus brasiliensis; PET, 28 days after inoculation): 900.000
- Maximum solubility in water [1]: 0.1 % by weight

— patent publication US20230293407A1, “Compositions Comprising (Bio)-Alkanediols with Antimicrobials for Product Protection” (Symrise AG, priority 2020, published 2023)
